# Experiments:
# [1] = tested on: rat adrenal medulla-derived pheochromocytoma cell PC12h; assay: Inhibition of glutamic acid-induced cell death of PC12h cells (LDH activity of cell extract); assay type: cell-based; settings: for cell survival ratio: 1 mM glutamic acid, 72 hrs, survival in glutamic acid non-added plot = 100%, peptide not-added plot 34.0%
# Procedure: Inhibitory Activity of the Humanin-Like Peptide against Glutanic Acid-Induced Cell Death of Rat Adrenal Medulla-Derived Pheochromocytoma Cell PC12h
# PC12h cells (supplied by Prof. Hiroshi Hatanaka, Institute for Protein Research, Osaka University; Hatanaka, H., Brain Research 222: 225–233, 1981) were plated at a density of 2×10^4 cells/cm^2 in collagen-coated 96-well plates (Iwaki) containing Dulbecco's modified Eagle's medium (hereinafter referred to as “DMEM”) containing 10% fetal bovine serum and 5% horse serum. After 24 hrs, the medium was exchanged for 100 μl of DMEM containing […] HEPES (pH 7.5). At the same time, various concentrations of the humanin-like peptide prepared in Example 2 (SEQ ID NO: 4) and glutamic acid to give a concentration of 1 mM were added to the medium. After 72 hrs, cells were lysed with 100 μl of phosphate buffered saline containing 0.2% Tween 20. Then, the lactate dehydrogenase (LDH) activity of the cell extract was determined with LDH Cytotoxic Test WAKO (Wako Purechemical Industries).
# [2] = tested on: nerve cells into which the causative gene of familial Alzheimer's disease is introduced; settings: nerve cells with the causative gene of familial Alzheimer's disease introduced; Proc. Natl. Acad. Sci. USA 98: 6336–6341, 2001; cited from earlier work
# [3] = tested on: nerve cells; settings: induced by the addition of β amyloid; Proc. Natl. Acad. Sci. USA 98: 6336–6341, 2001; cited from earlier work
Substance,"glutamic acid-induced cell death ([1]; PC12h cells, conclusion in words)",cell survival ratio ([1]; humanin-like peptide 1 μM),cell survival ratio ([1]; humanin-like peptide 10 μM),death of nerve cells [2],death of nerve cells [3]
"humanin-like peptide: polypeptide comprising the amino acid sequence as shown in SEQ ID NO: 4; 24 residues, 6 different from humanin; synthesised in Example 2 (MARRGFSCLLLSTTATDLPVKRRT; Human)",inhibited,59.3%,74.6%,,
"humanin: peptide consisting of 24 residues (WO 01/21787), encoded by a gene cloned from the occipital lobe by Hashimoto et al. (MAPRGFSCLLLLTSEIDLPVKRRA; Humanin; UniProt Q8IVG9 1-24, looked up)",,,,inhibited,inhibited

# From US7053053B2, “Humanin-like peptide and use thereof” (Takeda Chemical Industries, Ltd., priority 2001, dated 2006)
